The values below are quoted from earlier work in patent US20210134402A1, “METHODS AND SYSTEMS FOR PREDICTING SUCCESS RATES OF CLINICAL TRIALS” (THE TRUSTEES OF COLUMBIA UNIVERSITY IN THE CITY OF NEW YORK, priority 2018, published 2021).

The conditions of the series: trial in follicular lymphoma.

`Nc1ccccc1NC(=O)c1ccc(CNc2nccc(-c3cccnc3)n2)cc1` [mocetinostat]: the “side effects observed in the trial” value was “anaemia, neutropenia, nausea, and diarrhea”; the trial status entry is reported as “put on hold due to toxicity concerns”.
